| Compound | melting point [°C] |
| --- | --- |
| COC(=O)CNC(=O)C1(CCCCN2CCN(c3ccc4ccccc4n3)CC2)c2ccccc2-c2ccccc21 [Example 95, 9-[4-(4-quinolin-2-yl-piperazin-1-yl)-butyl]-9H-fluorene-9-carboxylic acid-(methoxycarbonyl-methyl)-amide] | 53 to 55 |
| O=C(O)CNC(=O)C1(CCCCN2CCN(c3ccc4ccccc4n3)CC2)c2ccccc2-c2ccccc21 [Example 97, 9-[4-(4-quinolin-2-yl-piperazin-1-yl)-butyl]-9H-fluorene-9-carboxylic acid-(carboxy-methyl)-amide] | 127 to 129 |
| C[C@@H]1CN(c2ccc3ccccc3n2)C[C@H](C)N1CCCCC1(C(=O)NCc2ccc(F)c(F)c2)c2ccccc2-c2ccccc21 [Example 98, 9-[4-(cis-2,6-dimethyl-4-quinolin-2-yl-piperazin-1-yl)-butyl]-9H-fluorene-9-carboxylic acid-3,4-difluoro-benzylamide] | 162 |
| O=C(NCC(F)(F)F)C1(CCCCN2CCN(c3nc4ccccc4s3)CC2)c2ccccc2Oc2ccccc21 [Example 100, 9-[4-(4-benzothiazol-2-yl-piperazin-1-yl)-butyl]-9H-xanthene-9-carboxylic acid-(2,2,2-trifluoro-ethyl)-amide] | 58 to 62 |
| O=C(NCC(F)(F)F)C1(CCCCN2CCN(c3ccc4ccccc4n3)CC2)c2ccccc2Oc2ccccc21 [Example 103, 9-[4-(4-quinolin-2-yl-piperazin-1-yl)-butyl]-9H-xanthene-9-carboxylic acid-(2,2,2-trifluoro-ethyl)-amide] | 178 |
| O=C(NCC(F)(F)F)C1(CCCCN2CCN(c3ccc4cccc(Cl)c4n3)CC2)c2ccccc2Oc2ccccc21 [Example 106, 9-{4-[4-(8-chloro-quinolin-2-yl)-piperazin-1-yl]-butyl}-9H-xanthene-9-carboxylic acid-(2,2,2-trifluoro-ethyl)-amide] | 68 |
| C[C@H]1CN(c2ccc3ccccc3n2)CCN1CCCCC1(C(=O)NCC(F)(F)F)c2ccccc2Oc2ccccc21 [Example 109, 9-{4-[(S)-2-methyl-4-quinolin-2-yl-piperazin-1-yl]-butyl}-9H-xanthene-9-carboxylic acid-(2,2,2-trifluoro-ethyl)-amide] | 52 to 53 |
| C[C@@H]1CN(c2nc3ccccc3s2)C[C@H](C)N1CCCCC1(C(=O)NCC(F)(F)F)c2ccccc2Oc2ccccc21 [Example 110, 9-[4-(4-benzothiazol-2-yl-cis-2,6-dimethyl-piperazin-1-yl)-butyl]-9H-xanthene-9-carboxylic acid-(2,2,2-trifluoro-ethyl)-amide] | 157 |
| C[C@@H]1CN(c2ccc3ccccc3n2)C[C@H](C)N1CCCCC1(C(=O)NCC(F)(F)F)c2ccccc2Oc2ccccc21 [Example 111, 9-[4-(cis-2,6-dimethyl-4-quinolin-2-yl-piperazin-1-yl)-butyl]-9H-xanthene-9-carboxylic acid-(2,2,2-trifluoro-ethyl)-amide] | 177 |
| CCCCNC(=O)C1(CCCCN2CCN(c3ccc4ccccc4n3)CC2)c2ccccc2Oc2ccccc21 [Example 118, 9-[4-(4-quinolin-2-yl-piperazin-1-yl)-butyl]-9H-xanthene-9-carboxylic acid-Butylamide] | 45 to 53 |

Other lines, results leading:

| melting point [°C] | Compound |
| --- | --- |
| 98 to 100 | O=C(O)CCNC(=O)C1(CCCCN2CCN(c3ccc4ccccc4n3)CC2)c2ccccc2-c2ccccc21 [Example 96, 9-[4-(4-quinolin-2-yl-piperazin-1-yl)-butyl]-9H-fluorene-9-carboxylic acid-(2-carboxy-ethyl)-amide] |
| 196 to 197 | O=C(NCC(F)(F)F)C1(CCCCN2CCN(c3nc4ccccc4o3)CC2)c2ccccc2Oc2ccccc21 [Example 101, 9-[4-(4-benzoxazol-2-yl-piperazin-1-yl)-butyl]-9H-xanthene-9-carboxylic acid-(2,2,2-trifluoro-ethyl)-amide] |
| 110 | Cn1c(N2CCN(CCCCC3(C(=O)NCC(F)(F)F)c4ccccc4Oc4ccccc43)CC2)nc2ccccc21 [Example 102, 9-{4-[4-(1-methyl-1H-benzimidazol-2-yl)-piperazin-1-yl]-butyl}-9H-xanthene-9-carboxylic acid-(2,2,2-trifluoro-ethyl)-amide] |
| 160 | O=C(NCC(F)(F)F)C1(CCCCN2CCN(c3ccc4c(Cl)cccc4n3)CC2)c2ccccc2Oc2ccccc21 [Example 104, 9-{4-[4-(5-chloro-quinolin-2-yl)-piperazin-1-yl]-butyl}-9H-xanthene-9-carboxylic acid-(2,2,2-trifluoro-ethyl)-amide] |
| 165 | O=C(NCC(F)(F)F)C1(CCCCN2CCN(c3ccc4cc(Cl)ccc4n3)CC2)c2ccccc2Oc2ccccc21 [Example 105, 9-{4-[4-(6-chloro-quinolin-2-yl)-piperazin-1-yl]-butyl}-9H-xanthene-9-carboxylic acid-(2,2,2-trifluoro-ethyl)-amide] |
| 48 to 58 | O=C(N1CCOCC1)C1(CCCCN2CCN(c3ccc4ccccc4n3)CC2)c2ccccc2Oc2ccccc21 [Example 120, 1-morpholin-4-yl-1-{9-[4-(4-quinolin-2-yl-piperazin-1-yl)-butyl]-9H-xanthene-9-yl}-methanone] |
| 68 | O=C(NCC(F)(F)F)C1(CCCN2CCN(c3nc4ccccc4s3)CC2)c2ccccc2-c2ccccc21 [Example 122, 9-[3-(4-benzothiazol-2-yl-piperazin-1-yl)-propyl]-9H-fluorene-9-carboxylic acid-(2,2,2-trifluoro-ethyl)-amide] |

Source: patent US6821967B2, “Substituted piperazine derivatives, the preparation thereof and their use as medicaments” (Boehringer Ingelheim Pharma KG, priority 1999, dated 2004)
